Assay results published in patent EP1096932B1, “ANTIHYPERTENSIVE COMBINATION OF VALSARTAN AND CALCIUM CHANNEL BLOCKER” (Novartis Pharma AG, priority 1998, dated 2000).

System: diabetic SHRs
Test: Survival of streptozotocin-diabetic SHRs under drug treatment
Format: in vivo, spontaneously hypertensive rats (SHR)
Conditions: twice daily gavage
Source text: In diabetic SHRs the presence of hypertension is an important determinant of renal injury, manifesting in functional changes such as albuminuria and in ultrastructural injury. For example, diabetic SHRs show ventricular hypertrophy and develop nephropathy resulting in sudden death events. Accordingly, the use of this animal model is well-applied in the art and suitable for evaluating effects of drugs on the development of diabetic renal diseases. There is a strong need to achieve a significant increase of the survival rate by treatment of hypertension in diabetes especially in NIDDM. It is known that CCBs are not considered as first line antihypertensives e.g. in NIDDM treatment. Though some kind of reduction of blood pressure may be achieved with CCBs, they may not be indicated for the treatment of renal disorders associated with diabetes.
Diabetes is induced in SHRs aged about 6 to 8 weeks weighing about 250 to 300 g by treatment e.g. with streptozotocin. The drugs are administered by twice daily gavage. Untreated diabetic SHRs are used as control group (group 1). […] On a regular basis, besides other parameters the survival rate after 21 weeks of treatment is being monitored. In week 21 of the study, following survival rates have been determined: […]

Row | SMILES | Survival Rate (20 mg/kg of verapamil, week 21 (group 3)) [%] | Survival Rate (30 mg/kg of valsartan, week 21 (group 2)) [%]
1 | COc1ccc(CCN(C)CCCC(C#N)(c2ccc(OC)c(OC)c2)C(C)C)cc1OC (centres unmarked) [verapamil] | 42.9 | –
2 | CCCCC(=O)N(Cc1ccc(-c2ccccc2-c2nnn[nH]2)cc1)[C@H](C(=O)O)C(C)C [valsartan, (S)-N-(1-carboxy-2-methyl-prop-1-yl)-N-pentanoyl-N-[2'(1H-tetrazol-5-yl)biphenyl-4-yl-methyl]amine] | – | 45.9
